This is an account of results in patent US20260053861A1, “CELL COMPOSITIONS AND METHODS OF USING THE SAME” (THE REGENTS OF THE UNIVERSITY OF CALIFORNIA, priority 2022, published 2026).

Structures can show the parent of a compound that is named as a salt.

The subject of one test is hPSC-SCs.
Conditions: not given
`C[C@H]1C(=O)O[C@@H]2CCN3CC=C(COC(=O)[C@](C)(O)[C@]1(C)O)[C@H]23` [Monocrotaline] came in with a z.score.t of 0.5046.

`Cc1ccsc1/C=C/C1=NCCCN1C` [Morantel tartrate] registered a z.score.t of −0.06439.

As for `c1cncc(C2=NCCC2)c1` [Myosmine], the z.score.t was 0.9865.

In turn, `Oc1ccc2c3c1O[C@H]1[C@@H](O)CC[C@@]4(O)[C@@H](C2)N(CC2CCC2)CC[C@]314` [Nalbuphine hydrochloride] registered a z.score.t of 0.1298.

`C[C@]12CC[C@H]3[C@@H](CCC4=CC(=O)CC[C@@H]43)[C@@H]1CC[C@@H]2O` [Nandrolone]: the z.score.t was determined as 1.306.

Take `C=C1[C@H]2C[C@@]3([C@@H]1O)[C@@H](C[C@@H]2O)[C@]12[C@@H]4C[C@H]3[C@H]1N(CC)C[C@]4(C)CC[C@@H]2O` [Napelline]: the z.score.t worked out at 1.178.

`CN(C)C(=O)Oc1cccc([N+](C)(C)C)c1` [Neostigmine bromide] yielded a z.score.t of 1.018.

`CNCCC(Oc1ccccc1OC)c1ccccc1` (centres unmarked) [Nisoxetine hydrochloride] had a z.score.t of 0.4318.

`Cl.Cl.c1ccc2c3c([nH]c2c1)C1C2CCC(C4CCCNC42)N1CC3` (centres unmarked) [Nitrarine dihydrochloride] gave a z.score.t of 0.3022.

In turn, `CCN(CC)CCOC(=O)C1(c2ccc([N+](=O)[O-])cc2)CCCC1.Cl` [Nitrocaramiphen hydrochloride] had a z.score.t of 1.242.

The test is the same for the next values; noted with them: HTS viability of hPSC-SCs in the presence of 30 mM glucose; Prestwick library; Table S4.
On to `CCOC(=O)[N-]c1cn(N2CCOCC2)n[o+]1` [Molsidomine], for which the z.score.t was found to be 0.713.

Consider `C[C@@H]1C[C@H]2[C@@H]3CCC4=CC(=O)C=C[C@]4(C)[C@@]3(Cl)[C@@H](O)C[C@]2(C)[C@@]1(OC(=O)c1ccco1)C(=O)CCl` [Mometasone furoate], for which the z.score.t was determined as 0.1979.

Regarding `CC[C@@]1([C@@H]2O[C@@H]([C@H]3O[C@@](O)(CO)[C@H](C)C[C@@H]3C)C[C@@H]2C)CC[C@H]([C@]2(C)CC[C@]3(C[C@H](O)[C@@H](C)[C@@H]([C@@H](C)[C@@H](OC)[C@H](C)C(=O)O)O3)O2)O1` [Monensin sodium salt], the z.score.t is −2.299.

With `Oc1ccc(OCc2ccccc2)cc1` [Monobenzone], the z.score.t was 0.557.

As to `CCOC(=O)Nc1ccc2c(c1)N(C(=O)CCN1CCOCC1)c1ccccc1S2` [Moricizine hydrochloride], the z.score.t was found to be 0.0827.

Take `Cl.N=C(N=C(N)N)N1CCOCC1` [Moroxidine hydrochloride]: the z.score.t is given as 1.464.

In the case of `CO[C@@]1(NC(=O)C(C(=O)O)c2ccc(O)cc2)C(=O)N2C(C(=O)O)=C(CSc3nnnn3C)CO[C@@H]21` (some centres unmarked) [Moxalactam disodium salt], the z.score.t is recorded as 0.4105.

Regarding `CC(=O)Oc1cc(C(C)C)c(OCCN(C)C)cc1C.Cl` [Moxisylyte hydrochoride], the z.score.t is reported as 0.8757.

`COc1nc(C)nc(Cl)c1N=C1NCCN1` [Moxonidine]: the z.score.t is listed as −0.133.

Consider `COc1c(C)c2c(c(O)c1C/C=C(\C)CCC(=O)O)C(=O)OC2` [Mycophenolic acid], for which the z.score.t is on record as −0.7775.

In the case of `O=c1c(O)c(-c2cc(O)c(O)c(O)c2)oc2cc(O)cc(O)c12` [Myricetin], the z.score.t turned out to be 0.713.

For the compound `CNc1ncnc2c1ncn2[C@@H]1O[C@H](CO)[C@@H](O)[C@H]1O` [N6-methyladenosine], the z.score.t worked out at 1.002.

Consider `CC(=O)N[C@@H](CC(C)C)C(=O)O` [N-Acetyl-L-leucine], for which the z.score.t came out at 0.2361.

Regarding `COc1ccc2cc(CCC(C)=O)ccc2c1` [Nabumetone], the z.score.t was 0.5365.

For the compound `NC(=O)c1ccc[n+]([C@@H]2O[C@H](COP(=O)([O-])OP(=O)(O)OC[C@H]3O[C@@H](n4cnc5c(N)ncnc54)[C@H](O)[C@@H]3O)[C@@H](O)[C@H]2O)c1` [Nadide], the z.score.t worked out at 0.453.

As for `CC1CCc2c(N3CCC(O)CC3)c(F)cc3c(=O)c(C(=O)O)cn1c23` (centres unmarked) [Nadifloxacin], the z.score.t is −0.9598.

For `CC(C)(C)NCC(O)COc1cccc2c1CC(O)C(O)C2` (centres unmarked) [Nadolol], the z.score.t came out at 0.7349.

On to `CCOc1ccc2ccccc2c1C(=O)N[C@@H]1C(=O)N2[C@@H]1SC(C)(C)[C@@H]2C(=O)O` [Nafcillin sodium salt monohydrate], for which the z.score.t came to 1.323.

Take `CCN(CC)CCOC(=O)C(Cc1cccc2ccccc12)CC1CCCO1` (centres unmarked) [Nafronyl oxalate]: the z.score.t is 2.094.

As for `CN(C/C=C/c1ccccc1)Cc1cccc2ccccc12` [Naftifine hydrochloride], the z.score.t is listed as −1.168.

Consider `COc1ccccc1N1CCN(CC(O)COc2cccc3ccccc23)CC1` (centres unmarked) [Naftopidil dihydrochloride], for which the z.score.t was −0.9264.

Regarding `C=CCN1CC[C@]23c4c5ccc(O)c4O[C@H]2C(=O)CC[C@@]3(O)[C@H]1C5` [Naloxone hydrochloride], the z.score.t was 0.84.

Turning to `O=C1CC[C@@]2(O)[C@H]3Cc4ccc(O)c5c4[C@@]2(CCN3CC2CC2)[C@H]1O5` [Naltrexone hydrochloride dihydrate], the z.score.t is recorded as 0.754.

With `c1ccc2c(CC3=NCCN3)cccc2c1` [Naphazoline hydrochloride], the z.score.t amounted to 0.7665.

Take `COc1ccc2cc([C@H](C)C(=O)O)ccc2c1` [Naproxen]: the z.score.t amounted to 1.745.

For `O=C1C[C@@H](c2ccc(O)cc2)Oc2cc(O)cc(O)c21` [Naringenine], the z.score.t is reported as 1.539.

On to `C[C@@H]1O[C@@H](O[C@H]2[C@H](Oc3cc(O)c4c(c3)O[C@H](c3ccc(O)cc3)CC4=O)O[C@H](CO)[C@@H](O)[C@@H]2O)[C@H](O)[C@H](O)[C@H]1O` [Naringin hydrate], for which the z.score.t is recorded as 1.659.

On to `CN1CCOC(c2ccccc2)c2ccccc2C1` (centres unmarked) [Nefopam hydrochloride], for which the z.score.t is reported as −0.3733.

Turning to `NC[C@@H]1O[C@H](O[C@H]2[C@@H](O)[C@H](O[C@@H]3[C@@H](O)[C@H](N)C[C@H](N)[C@H]3O[C@H]3O[C@H](CN)[C@@H](O)[C@H](O)[C@H]3N)O[C@@H]2CO)[C@H](N)[C@@H](O)[C@@H]1O.O=S(=O)(O)O` [Neomycin sulfate], the z.score.t was −0.6492.

As to `O=C(O)c1cccnc1` [Niacin], the z.score.t came to 0.4105.

On to `O=C(CCNNC(=O)c1ccncc1)NCc1ccccc1` [Nialamide], for which the z.score.t is −0.7018.

As to `COC(=O)C1=C(C)NC(C)=C(C(=O)OCCN(C)Cc2ccccc2)C1c1cccc([N+](=O)[O-])c1` (centres unmarked) [Nicardipine hydrochloride], the z.score.t stood at 0.2189.

In the case of `CO[C@]12C[C@@H](COC(=O)c3cncc(Br)c3)CN(C)[C@@H]1Cc1cn(C)c3cccc2c13` [Nicergoline], the z.score.t is given as −0.2131.

On to `O=C(Nc1ccc([N+](=O)[O-])cc1Cl)c1cc(Cl)ccc1O` [Niclosamide], for which the z.score.t is −1.794.

As for `O=C(NCCO[N+](=O)[O-])c1cccnc1` [Nicorandil], the z.score.t is reported as 0.599.

With `Cc1c(NC(=O)c2cccnc2)c(=O)n(-c2ccccc2)n1C` [Nifenazone], the z.score.t was −0.2425.

`O=C(O)c1cccnc1Nc1cccc(C(F)(F)F)c1` [Niflumic acid]: the z.score.t is reported as 0.5856.

Consider `O=C(N/N=C/c1ccc([N+](=O)[O-])o1)c1ccc(O)cc1` [Nifuroxazide], for which the z.score.t came out at 0.8023.

On to `CC1CS(=O)(=O)CCN1/N=C/c1ccc([N+](=O)[O-])o1` (centres unmarked) [Nifurtimox], for which the z.score.t is 1.522.

Regarding `CC1(C)NC(=O)N(c2ccc([N+](=O)[O-])c(C(F)(F)F)c2)C1=O` [Nilutamide], the z.score.t is on record as 0.1244.

Turning to `CS(=O)(=O)Nc1ccc([N+](=O)[O-])cc1Oc1ccccc1` [Nimesulide], the z.score.t is 2.111.

In the case of `COCCOC(=O)C1=C(C)NC(C)=C(C(=O)OC(C)C)C1c1cccc([N+](=O)[O-])c1` (centres unmarked) [Nimodipine], the z.score.t is reported as −1.245.

As to `O=C1NCCN1c1ncc([N+](=O)[O-])s1` [Niridazole], the z.score.t is on record as 2.422.

Take `COC(=O)C1=C(C)NC(C)=C(C(=O)OCC(C)C)C1c1ccccc1[N+](=O)[O-]` (centres unmarked) [Nisoldipine]: the z.score.t is reported as −0.5992.

On to `CCOC(=O)C1=C(C)NC(C)=C(C(=O)OC)C1c1cccc([N+](=O)[O-])c1` (centres unmarked) [Nitrendipine], for which the z.score.t is reported as 0.6177.

As to `NC(=O)N/N=C/c1ccc([N+](=O)[O-])o1` [Nitrofural], the z.score.t turned out to be 0.767.

With `O=C1CN(/N=C/c2ccc([N+](=O)[O-])o2)C(=O)N1` [Nitrofurantoin], the z.score.t is −0.03449.

Take `CNC(=C[N+](=O)[O-])NCCSCc1csc(CN(C)C)n1` [Nizatidine]: the z.score.t was −0.0788.

Take `COC(=O)Nc1nc2ccc(C(=O)c3cccs3)cc2[nH]1` [Nocodazole]: the z.score.t is given as −1.329.

With `CC(=O)O[C@]1(C(C)=O)CC[C@H]2[C@@H]3C=C(C)C4=CC(=O)CC[C@@H]4[C@H]3CC[C@@]21C` [Nomegestrol acetate], the z.score.t is listed as 0.7296.

For the compound `CN1Cc2c(N)cccc2C(c2ccccc2)C1` (centres unmarked) [Nomifensine maleate], the z.score.t is listed as −0.004573.

`CNCCC=C1c2ccccc2C=Cc2ccccc21` [Norcyclobenzaprine]: the z.score.t was found to be 0.465.

As for `C#C[C@]1(O)CC[C@H]2[C@@H]3CCC4=CC(=O)CC[C@@H]4[C@H]3CC[C@@]21C` [Norethindrone], the z.score.t came out at 0.2479.

In the case of `C#C[C@]1(O)CC[C@H]2[C@@H]3CCC4=C(CCC(=O)C4)[C@H]3CC[C@@]21C` [Norethynodrel], the z.score.t came out at 1.857.

Regarding `CCn1cc(C(=O)O)c(=O)c2cc(F)c(N3CCNCC3)cc21` [Norfloxacin], the z.score.t is given as 0.3922.

Regarding `C#C[C@]1(O)CC[C@H]2[C@@H]3CCC4=CC(=O)CC[C@@H]4[C@H]3CC[C@@]21CC` [Norgestrel-(−)-D], the z.score.t is 0.0116.

For the compound `CNCCC=C1c2ccccc2CCc2ccccc21` [Nortriptyline hydrochloride], the z.score.t is recorded as −1.753.

`COc1ccc2c(c1OC)C(=O)O[C@@H]2[C@H]1c2c(cc3c(c2OC)OCO3)CCN1C` [Noscapine]: the z.score.t is listed as −0.3731.
